# Reference: article PMC10979849 (bioRxiv, 2024)
# Molecular target: T1, wild-type (WT) Octβ2R (Drosophila melanogaster, UniProt Q4LBB9)
# T1 sequence (Q4LBB9 1-536): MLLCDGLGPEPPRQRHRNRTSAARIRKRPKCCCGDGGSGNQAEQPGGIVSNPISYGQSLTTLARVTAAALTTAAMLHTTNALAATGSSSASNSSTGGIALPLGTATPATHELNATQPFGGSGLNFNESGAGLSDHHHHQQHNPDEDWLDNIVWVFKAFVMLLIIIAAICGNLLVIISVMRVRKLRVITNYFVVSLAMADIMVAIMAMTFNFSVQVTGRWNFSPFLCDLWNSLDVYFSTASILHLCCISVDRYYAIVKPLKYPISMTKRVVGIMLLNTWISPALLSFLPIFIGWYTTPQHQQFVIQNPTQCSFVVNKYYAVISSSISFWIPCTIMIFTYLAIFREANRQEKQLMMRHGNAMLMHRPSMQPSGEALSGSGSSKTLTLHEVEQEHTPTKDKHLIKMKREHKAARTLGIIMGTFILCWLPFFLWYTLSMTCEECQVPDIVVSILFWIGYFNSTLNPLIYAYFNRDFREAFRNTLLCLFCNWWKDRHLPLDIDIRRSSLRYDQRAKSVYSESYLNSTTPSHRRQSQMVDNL
# Experiment: Tango β-arrestin assay
# Assay type: cell-based
# Settings: agonist; OA 1 nM to 100 μM, ~16 h (Tango)
compound,measurement,value
NC[C@H](O)c1ccc(O)cc1 [Octopamine],Tango β-arrestin assay (HTLA cells); RFlamp cAMP assay (HEK293T),"negligible β-arrestin-dependent signaling compared to cells expressing WT Octβ2R, even at high concentrations of OA"
